According to patent US7271260B2, “3,4-dihydroquinazoline derivatives as T-type calcium channel blockers and method of preparing the same” (Korea Institute of Science and Technology, priority 2004, dated 2007):

Tests used:
[1] = target: T1, T-type calcium channel α1H (Cav3.2) (Homo sapiens, UniProt O95180); assay: Two-electrode voltage clamp on Xenopus unfertilized oocytes expressing α1H T-type calcium channel; type: cell-based; conditions: test potential -20 mV from -90 mV, read-out: inhibitory effect (blocking percentage), Xenopus oocyte (α1H) at 100 μM
T1 construct: expressed in transfected cells; host or cells: Xenopus laevis unfertilized oocytes injected with cRNA (pGEM-HEA linearised with AflII, T7 transcription)
T1 sequence (O95180 whole entry): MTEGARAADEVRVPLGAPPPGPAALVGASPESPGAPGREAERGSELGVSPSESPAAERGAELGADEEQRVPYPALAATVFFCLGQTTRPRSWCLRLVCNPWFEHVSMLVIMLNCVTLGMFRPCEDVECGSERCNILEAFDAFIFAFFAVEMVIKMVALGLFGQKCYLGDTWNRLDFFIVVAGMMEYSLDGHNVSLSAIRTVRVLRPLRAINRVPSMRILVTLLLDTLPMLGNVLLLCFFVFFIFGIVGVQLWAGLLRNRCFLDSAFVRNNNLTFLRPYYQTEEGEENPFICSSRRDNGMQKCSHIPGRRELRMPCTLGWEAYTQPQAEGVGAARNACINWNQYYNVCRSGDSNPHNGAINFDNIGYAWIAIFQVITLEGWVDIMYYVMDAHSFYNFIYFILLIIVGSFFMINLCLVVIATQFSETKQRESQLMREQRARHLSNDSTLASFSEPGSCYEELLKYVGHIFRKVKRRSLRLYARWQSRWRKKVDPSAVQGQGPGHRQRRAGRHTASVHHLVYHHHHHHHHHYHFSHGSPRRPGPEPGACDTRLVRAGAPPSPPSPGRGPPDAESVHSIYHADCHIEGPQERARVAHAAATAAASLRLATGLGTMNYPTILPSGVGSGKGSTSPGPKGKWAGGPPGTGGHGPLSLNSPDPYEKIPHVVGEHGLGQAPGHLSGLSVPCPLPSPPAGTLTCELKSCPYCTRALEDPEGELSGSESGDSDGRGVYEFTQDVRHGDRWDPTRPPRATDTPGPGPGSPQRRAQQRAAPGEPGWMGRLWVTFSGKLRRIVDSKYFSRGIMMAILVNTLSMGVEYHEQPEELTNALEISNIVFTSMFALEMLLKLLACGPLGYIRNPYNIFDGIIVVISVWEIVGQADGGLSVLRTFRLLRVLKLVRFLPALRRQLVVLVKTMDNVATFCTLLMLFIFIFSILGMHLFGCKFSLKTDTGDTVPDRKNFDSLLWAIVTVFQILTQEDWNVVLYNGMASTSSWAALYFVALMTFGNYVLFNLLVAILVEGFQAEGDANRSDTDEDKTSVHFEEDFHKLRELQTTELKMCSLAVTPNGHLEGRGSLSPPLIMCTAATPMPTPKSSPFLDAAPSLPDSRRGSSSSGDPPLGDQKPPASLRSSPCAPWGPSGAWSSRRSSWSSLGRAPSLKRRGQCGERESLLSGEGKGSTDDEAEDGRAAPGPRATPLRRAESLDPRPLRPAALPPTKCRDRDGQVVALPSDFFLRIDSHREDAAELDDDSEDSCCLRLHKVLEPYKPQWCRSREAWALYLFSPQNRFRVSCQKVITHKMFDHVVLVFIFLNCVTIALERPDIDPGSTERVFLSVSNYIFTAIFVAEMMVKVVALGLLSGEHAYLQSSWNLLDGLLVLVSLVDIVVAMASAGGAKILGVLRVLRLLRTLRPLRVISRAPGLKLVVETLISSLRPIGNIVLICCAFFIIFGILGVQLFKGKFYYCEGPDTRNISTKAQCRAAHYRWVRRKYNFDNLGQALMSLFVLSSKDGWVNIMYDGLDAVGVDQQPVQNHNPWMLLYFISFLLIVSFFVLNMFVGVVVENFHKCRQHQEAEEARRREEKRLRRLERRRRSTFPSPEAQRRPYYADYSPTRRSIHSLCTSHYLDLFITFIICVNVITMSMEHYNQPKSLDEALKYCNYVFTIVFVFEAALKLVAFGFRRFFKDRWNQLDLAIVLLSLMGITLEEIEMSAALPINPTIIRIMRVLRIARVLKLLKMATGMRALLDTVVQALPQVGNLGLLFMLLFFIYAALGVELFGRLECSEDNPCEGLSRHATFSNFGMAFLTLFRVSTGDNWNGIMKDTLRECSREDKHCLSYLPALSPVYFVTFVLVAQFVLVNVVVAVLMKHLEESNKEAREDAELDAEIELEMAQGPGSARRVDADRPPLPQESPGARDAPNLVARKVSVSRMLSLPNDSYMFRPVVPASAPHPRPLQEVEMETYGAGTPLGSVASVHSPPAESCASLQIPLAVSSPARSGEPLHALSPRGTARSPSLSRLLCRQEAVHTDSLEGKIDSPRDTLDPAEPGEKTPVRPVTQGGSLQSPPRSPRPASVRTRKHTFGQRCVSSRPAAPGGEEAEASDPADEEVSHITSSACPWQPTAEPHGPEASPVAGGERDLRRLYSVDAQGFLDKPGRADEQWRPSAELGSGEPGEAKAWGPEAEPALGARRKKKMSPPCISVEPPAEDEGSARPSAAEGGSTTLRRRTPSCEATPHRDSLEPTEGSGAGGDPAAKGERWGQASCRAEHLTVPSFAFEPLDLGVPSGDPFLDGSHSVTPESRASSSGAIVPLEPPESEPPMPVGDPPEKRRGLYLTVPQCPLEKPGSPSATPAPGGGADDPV
Method: In order to express a gene encoding T-type calcium channel α1H (Cav3.2) (Cribbs, L. L. et al., Circ. Res., 1998, 83, 103-109) in unfertilized Xenopus oocytes, pGEM-HEA was treated with restriction enzyme AflII to obtain a DNA fragment containing 5′-terminal region having the T-type calcium channel cDNA (AF051946). cRNA having a corresponding sequence to that of the fragment was synthesized using T7 RNA polymerase according to the manufacturer's instructions (mMESSAGE mMACHINE kit, Ambion, Austin, U.S.A.). The synthesized cRNA was quantified by measuring the O.D. value with a spectrophotometer. At this time, unfertilized oocytes were prepared from female Xenopus laevis (Xenopus I, U.S.A.) according to the following method. After the frog's abdomen was incised by about 1 cm, three to four lobes were detached therefrom with scissors and separated into small pieces to which several oocytes were attached. The small pieces were hydrolyzed in OR solution (82.5 mM NaCl, 2.5 mM KCl, 1 mM MgCl2, 5 mM HEPES, pH 7.6) and supplemented with collagenase type IA (Sigma, U.S.A.) to remove defolliculation. After selecting healthy oocytes with a dissecting microscope, they were soaked in SOS solution (100 mM NaCl, 2 mM KCl, 1.8 mM CaCl2, 1 mM MgCl2, 5 mM HEPES, 2.5 mM pyruvate, […] gentamicin, pH 7.6) for 3 to 4 hours to revitalize them. 2 to 5 ng of cRNA was injected into each oocyte using Nano-injector. The oocytes were subjected to a test in order to examine the electrical properties of the channel expressed therefrom 4 to 5 days after the injection while being maintained at 18° C.
The current of the calcium channel expressed from the Xenopus unfertilized oocytes was measured according to a two-electrode voltage clamping method. The current was measured in 10 mM Ba^2+ solution (10 mM Ba(OH)2, 90 mM NaOH, 1 mM KCl, 0.1 mM EDTA, 5 mM HEPES, pH was adjusted to 7.4 with methanesulfonic acid). At this time, the voltage clamp and current measurement were regulated with an amplifier for unfertilized oocytes (Model OC-725C, Warner Instrument Corp., U.S.A.), and analog signals were converted into digital signals using Digidata 2000A (Analog-Digital converter, Axon Instrument). The acquisition, storage and analysis of all data were recorded in Pentium IV computer via pCLAMP8. The data were mainly collected at 5 KHz and filtered at 1 KHz (Model 902 filter; Frequency devices located at Harverhill, Mass., U.S.A.). The T-type current was generated by imposing test electric potential of −20 mV every 15 seconds on the unfertilized oocytes, the potential of which was fixed at −90 mV. A blocking percentage was calculated by comparing the […] before and after the drug treatment.

[2] = system: N-type (HVA) Ca2+ channel; assay: Patch clamp of high voltage-activated calcium current in MPG (major pelvic ganglion) neurons; type: cell-based, rat; conditions: 10 μM; for selectivity for the sub-types of the calcium channel (T-type LVA vs N-type HVA): from Table 3; for Inhibitory effect, Ca2+ channel N-type (HVA): MPG neuron, n.i. = no inhibitory effect
Method: In order to examine the selectivity of the compound of the present invention for other ion channels, the inhibitory effects of KYS05001, KYS05041 and KYS05042 on […] and high voltage-activated Ca2+ channel (HVA) were measured according to a conventional method (Lee, J.-H. et al., J. Neurophysiol. 2002, 87, 2844-2850) using MPG (major pelvic ganglion).
Male Sprague-Dawley rats having about 250 g of an average body weight were employed as experimental animals. After the rats were anesthetized with sodium pentobarbital (50 mg/kg, i.p.), the abdomen was cut open immediately. MPG located on the left side of the prostate was extracted and then transferred in cold (4° C.) Hank's balanced salt solution (HBSS, GibcoBRL). The connective tissue encompassing the ganglion was stripped therefrom and a small gap was made carefully on the naked ganglion with a sharp knife. Then, the ganglion was cultured in 10 ml of modified Earle's balanced salt solution (EBSS, pH 7.4, GibcoBRL) supplemented with 0.7 mg/ml of collagenase (type D), 0.3 mg/ml of trypsin and 0.1 mg/ml of DNAse type I at 35° C. for 1 hour (Zhu et al., J. Physiol. Lond. 1995, 489, 363-375). At this time, 3.6 g/l of glucose and 10 mM HEPES were added to EBSS. After the cultivation was completed, the culture flask was shaken to separate call clusters into a single nerve cell and subjected to centrifugation at 1000 rpm with a clinical centrifuge (International Equipment Company, Mass., U.S.A.). The separated single nerve cells were re-suspended in MEM (GibcoBRL) supplemented with 10% fetal bovine serum, 1% glutamine and 1% penicillin/streptomycin. They were then spread on a polystyrene culture dish (35 mm) coated with poly-L-lysine. The culture dish was incubated at 37° C. humidified incubator (95% air-5% CO2) and the cells were used in the following experiment within 24 hours after the separation.
The voltage-dependent calcium and sodium current were recorded according to a typical patch clamping method using a patch clamp amplifier (Axopatch 1D, Axon Instruments, Foster City, Calif., U.S.A.) at a whole-cell ruptured configuration (Hamill et al., Pflügers Arch. 1981, 391, 85-100). An electrode was made from a borosilicate glass capillary tube (outer diameter; 1.65 mm, inner diameter; 1.2 mm, Corning 7052, Garner Glass Co., Claremont, Calif., U.S.A.) using P-97 Flaming-Brown micropipette puller (Sutter Instrument Co., Novato, Calif., U.S.A.) and forged smoothly by heating with a microforge. The electrode showing 1˜3 MΩ of resistance when filled with a solution was used for the following experiment. The culture dish containing the nerve cells was placed on an inverted microscope and the cell exterior solution was flowed into the dish at a flow rate of about 1˜2 ml/min. The membrane capacitance and series resistance were corrected by 80% or more with an amplifier. The voltage generation and record of calcium current were carried out using S4 software (provided by Dr. Stephen R. Ikeda, National Institute on Alcohol Abuse and Alcoholism, NIH, USA) equipped in Macintosh computer, which was connected to an analogue/digital converter (Digidata 1200, Axon Instruments Co.). The calcium current, which passed through a low band pass filter at 2˜5 kHz, was stored in Macintosh computer and analyzed with IGOR PRO (Wave-Metrics, Lake Oswego, Oreg., U.S.A.). All the experiments were conducted at a room temperature ranging from 20 to 22° C.
The electrode for measuring the calcium current was filled with the solution comprising 120 mM N-methyl-D-glucamine (NMG) methanesulfonate (MS), 20 mM tetraethylammonium (TEA)-MS, 20 mM HCl, 11 mM EGTA, 10 mM HEPES, 1 mM CaCl2, 4 mM MgATP, 0.3 mM Na2GTP and 14 mM tris-phosphocreatine (pH 7.2, 290 mOsm). The extracellular infusion fluid was composed of 140 mM MS, 145 mM TEA-OH, 10 mM HEPES, 15 mM glucose, 10 mM CaCl2 and 0.0003 mM tetrodotoxin (TTX, pH 7.4, 320 mOsm). […]

| Structure (SMILES) | inhibition at 100 µM [1] | selectivity for the sub-types of the calcium channel (T-type LVA vs N-type HVA) [2] | Inhibitory effect, Ca2+ channel N-type (HVA) [2] |
| --- | --- | --- | --- |
| Cc1ccc(S(=O)(=O)Nc2ccc(CNC(=O)CC3c4ccccc4N=C(N4CCCCC4)N3c3ccccc3)cc2)cc1 (stereo not drawn) [KYS05041, 4-{N-[4-(4-methylbenzenesulfonylamido)benzyl]acetamido}-3-phenyl-2-(piperidine-1-yl)-3,4-dihydroquinazoline] | 84.7% | relatively lower selectivity | >89% |
| O=C(CC1c2ccccc2N=C(N2CCCCC2)N1c1ccccc1)NCc1ccccc1 (stereo not drawn) [KYS05001] | 77% | selectively inhibited only the T-type (LVA) calcium channel | n.i.^b |
| O=C(CC1c2ccccc2N=C(N2CCCCC2)N1c1ccccc1)NCc1ccc(NS(=O)(=O)c2ccc(F)cc2)cc1 (stereo not drawn) [KYS05042, 4-{N-[4-(4-fluorobenzenesulfonylamido)benzyl]acetamido}-3-phenyl-2-(piperidine-1-yl)-3,4-dihydroquinazoline] | 80.5% | relatively lower selectivity | >90% |
